# Source: ChEMBL document CHEMBL4725221, “Thiazoles, Their Benzofused Systems, and Thiazolidinone Derivatives: Versatile and Promising Tools to Combat Antibiotic Resistance” (J Med Chem, 2020)
# Experiments:
# Escherichia coli [1] = assay: Antibacterial activity against Escherichia coli MTCC 40 after 7 days by two-fold serial dilution method; assay type: functional; details: MTCC 40, 168 h, time 7 day
# Staphylococcus aureus [2] = assay: Antibacterial activity against Staphylococcus aureus MTCC 121 after 7 days by two-fold serial dilution method; assay type: functional; details: MTCC 121, 168 h, time 7 day
# Pseudomonas aeruginosa [3] = assay: Antibacterial activity against Pseudomonas aeruginosa MTCC 2453 after 7 days by two-fold serial dilution method; assay type: functional; details: MTCC 2453, 168 h, time 7 day
# Bacillus subtilis = assay: Antibacterial activity against Bacillus subtilis […] after 7 days by two-fold serial dilution method; assay type: functional; details: 168 h, time 7 day
# Staphylococcus aureus [4] = assay: Antibacterial activity against Staphylococcus aureus ATCC 6538 by CLSI protocol based microdilution method; assay type: functional, organism-based
# Staphylococcus aureus [5] = assay: Antibacterial activity against Staphylococcus aureus ATCC 25923 by CLSI protocol based microdilution method; assay type: functional, organism-based
# Escherichia coli [6] = assay: Antibacterial activity against Escherichia coli AG102; assay type: functional
# Escherichia coli [7] = assay: Antibacterial activity against Escherichia coli AG102 in presence of ciprofloxacin; assay type: functional
# Enterococcus faecalis [8] = assay: Antibacterial activity against Enterococcus faecalis; assay type: functional
# Enterococcus faecalis [9] = assay: Antibiofilm activity against Enterococcus faecalis; assay type: functional
# Listeria monocytogenes = assay: Antibacterial activity against Listeria monocytogenes ATCC 19115 after 24 hrs by CLSI protocol based cup-plate agar diffusion method; assay type: functional
# Salmonella typhimurium = assay: Antibacterial activity against Salmonella typhimurium ATCC 14028 after 24 hrs by CLSI protocol based cup-plate agar diffusion method; assay type: functional, Salmonella enterica subsp. enterica serovar Typhimurium; details: Salmonella enterica
# Pseudomonas aeruginosa [10] = assay: Antibacterial activity against Pseudomonas aeruginosa ATCC 27853 after 24 hrs by CLSI protocol based cup-plate agar diffusion method; assay type: functional
# Staphylococcus aureus [11] = assay: Antibacterial activity against Staphylococcus aureus ATCC 49444 after 24 hrs by CLSI protocol based cup-plate agar diffusion method; assay type: functional
smiles,measurement,setting,value
O=C(NN1C(=O)/C(=C/c2ccccc2)SC1c1cccc(F)c1)c1ccc(-c2ccccc2)cc1 (stereo not given),MIC,Escherichia coli [1],6.25 µg/mL
same,MIC,Staphylococcus aureus [2],6.25 µg/mL
same,MIC,Pseudomonas aeruginosa [3],12.5 µg/mL
same,MIC,Bacillus subtilis,3.12 µg/mL
COCCn1cc(-c2csc(-c3cn(C(=O)OC(C)(C)C)c4ccccc34)n2)c2ccccc21,IC50,Staphylococcus aureus [4],6.9 µg/mL
same,IC50,Staphylococcus aureus [5],1.8 µg/mL
O=C(Nc1ccc(Cc2nc3ccccc3s2)cc1)c1ccccc1,MIC,Escherichia coli [6],256 µg/mL
same,MIC,Escherichia coli [7],0.016 µg/mL
NC(=O)c1cc(-c2csc(-c3cccc(-c4csc(-c5ccccc5)n4)c3)n2)ccc1O,MIC,Enterococcus faecalis [8],250 µg/mL
same,MBIC,Enterococcus faecalis [9],0.008 mg/mL
CC(C)(C)OC(=O)NCCn1cc(-c2nc(-c3c[nH]c4ccccc34)cs2)c2ccccc21,IC50,Staphylococcus aureus [4],5.2 µg/mL
same,IC50,Staphylococcus aureus [5],3.9 µg/mL
O=C(NN1C(=O)/C(=C/c2cccc([N+](=O)[O-])c2)SC1c1cccc(Br)c1)c1ccc(-c2ccccc2)cc1 (stereo not given),MIC,Escherichia coli [1],3.12 µg/mL
same,MIC,Staphylococcus aureus [2],1.56 µg/mL
same,MIC,Pseudomonas aeruginosa [3],1.56 µg/mL
same,MIC,Bacillus subtilis,1.56 µg/mL
Cc1nc(-c2ccccc2)sc1-c1nnc(S)n1/N=C\c1cccs1,MIC,Listeria monocytogenes,1.9 µg/mL
same,MIC,Salmonella typhimurium,62.5 µg/mL
same,MIC,Pseudomonas aeruginosa [10],1.9 µg/mL
same,MIC,Staphylococcus aureus [11],15.6 µg/mL
COCCn1cc(-c2csc(-c3cn(C)c4ccc(Br)cc34)n2)c2ccccc21,IC50,Staphylococcus aureus [5],2.5 µg/mL
O=C(Nc1ccc(Cc2nc3ccccc3s2)cc1)c1ccc(F)cc1,MIC,Escherichia coli [6],128 µg/mL
same,MIC,Escherichia coli [7],0.03 µg/mL
CCc1ccc(C(=O)Nc2ccc(Cc3nc4ccccc4s3)cc2)cc1,MIC,Escherichia coli [6],64 µg/mL
same,MIC,Escherichia coli [7],0.06 µg/mL
O=C(Nc1ccc(-c2nc3ccccc3s2)cc1)c1ccccc1,MIC,Escherichia coli [6],256 µg/mL
same,MIC,Escherichia coli [7],0.03 µg/mL
O=C(NN1C(=O)/C(=C/c2ccccc2)SC1c1cccc(Br)c1)c1ccc(-c2ccccc2)cc1 (stereo not given),MIC,Escherichia coli [1],6.25 µg/mL
same,MIC,Staphylococcus aureus [2],3.12 µg/mL
same,MIC,Pseudomonas aeruginosa [3],3.12 µg/mL
same,MIC,Bacillus subtilis,3.12 µg/mL
O=C(NN1C(=O)/C(=C/c2cccc([N+](=O)[O-])c2)SC1c1ccccc1)c1ccc(-c2ccccc2)cc1 (stereo not given),MIC,Escherichia coli [1],6.25 µg/mL
same,MIC,Staphylococcus aureus [2],3.12 µg/mL
same,MIC,Pseudomonas aeruginosa [3],3.12 µg/mL
same,MIC,Bacillus subtilis,1.56 µg/mL
O=C(Cc1ccc(F)cc1)Nc1ccc(-c2nc3ccccc3s2)cc1,MIC,Escherichia coli [6],128 µg/mL
same,MIC,Escherichia coli [7],0.03 µg/mL
O=C(NN1C(=O)/C(=C/c2cccc([N+](=O)[O-])c2)SC1c1cccc(F)c1)c1ccc(-c2ccccc2)cc1 (stereo not given),MIC,Escherichia coli [1],12.5 µg/mL
same,MIC,Staphylococcus aureus [2],6.25 µg/mL
same,MIC,Pseudomonas aeruginosa [3],3.12 µg/mL
same,MIC,Bacillus subtilis,6.25 µg/mL
Cc1nc(-c2ccccc2)sc1-c1nnc(S)n1/N=C\c1ccc(F)cc1,MIC,Listeria monocytogenes,1.9 µg/mL
same,MIC,Salmonella typhimurium,62.5 µg/mL
same,MIC,Pseudomonas aeruginosa [10],1.9 µg/mL
same,MIC,Staphylococcus aureus [11],31.2 µg/mL
O=C(Nc1ccc(Cc2nc3ccccc3s2)cc1)c1ccc([N+](=O)[O-])cc1,MIC,Escherichia coli [6],128 µg/mL
same,MIC,Escherichia coli [7],0.06 µg/mL
Cc1ccc(CC(=O)Nc2ccc(-c3nc4ccccc4s3)cc2)cc1,MIC,Escherichia coli [6],512 µg/mL
same,MIC,Escherichia coli [7],0.004 µg/mL
Cc1nc(-c2ccccc2)sc1-c1nnc(S)n1/N=C\c1ccc(Br)cc1,MIC,Listeria monocytogenes,1.9 µg/mL
same,MIC,Salmonella typhimurium,62.5 µg/mL
same,MIC,Pseudomonas aeruginosa [10],1.9 µg/mL
same,MIC,Staphylococcus aureus [11],31.2 µg/mL
O=C(CCCCc1ccccc1)Nc1ccc(-c2nc3ccccc3s2)cc1,MIC,Escherichia coli [6],512 µg/mL
same,MIC,Escherichia coli [7],0.004 µg/mL
CCCCOc1ccc(C(=O)Nc2ccc(-c3nc4ccccc4s3)cc2)cc1,MIC,Escherichia coli [6],64 µg/mL
same,MIC,Escherichia coli [7],0.5 µg/mL
CCN(CC)c1ccc(/C=N\n2c(S)nnc2-c2sc(-c3ccccc3)nc2C)cc1,MIC,Listeria monocytogenes,1.9 µg/mL
same,MIC,Salmonella typhimurium,62.5 µg/mL
same,MIC,Pseudomonas aeruginosa [10],1.9 µg/mL
same,MIC,Staphylococcus aureus [11],31.2 µg/mL
O=C(NN1C(=O)/C(=C/c2cccc(Br)c2)SC1c1cccc(Br)c1)c1ccc(-c2ccccc2)cc1 (stereo not given),MIC,Escherichia coli [1],6.25 µg/mL
same,MIC,Staphylococcus aureus [2],3.12 µg/mL
same,MIC,Pseudomonas aeruginosa [3],6.25 µg/mL
same,MIC,Bacillus subtilis,3.12 µg/mL
